The values that follow come from BindingDB's records for doi:10.7270/Q2WS8RN8 (The Scripps Research Institute Molecular Screening Center, 2008).

For this experiment, the target named is T1, Signal transducer and activator of transcription 1-alpha/beta (Homo sapiens, UniProt P42224).
T1 sequence (P42224 whole entry): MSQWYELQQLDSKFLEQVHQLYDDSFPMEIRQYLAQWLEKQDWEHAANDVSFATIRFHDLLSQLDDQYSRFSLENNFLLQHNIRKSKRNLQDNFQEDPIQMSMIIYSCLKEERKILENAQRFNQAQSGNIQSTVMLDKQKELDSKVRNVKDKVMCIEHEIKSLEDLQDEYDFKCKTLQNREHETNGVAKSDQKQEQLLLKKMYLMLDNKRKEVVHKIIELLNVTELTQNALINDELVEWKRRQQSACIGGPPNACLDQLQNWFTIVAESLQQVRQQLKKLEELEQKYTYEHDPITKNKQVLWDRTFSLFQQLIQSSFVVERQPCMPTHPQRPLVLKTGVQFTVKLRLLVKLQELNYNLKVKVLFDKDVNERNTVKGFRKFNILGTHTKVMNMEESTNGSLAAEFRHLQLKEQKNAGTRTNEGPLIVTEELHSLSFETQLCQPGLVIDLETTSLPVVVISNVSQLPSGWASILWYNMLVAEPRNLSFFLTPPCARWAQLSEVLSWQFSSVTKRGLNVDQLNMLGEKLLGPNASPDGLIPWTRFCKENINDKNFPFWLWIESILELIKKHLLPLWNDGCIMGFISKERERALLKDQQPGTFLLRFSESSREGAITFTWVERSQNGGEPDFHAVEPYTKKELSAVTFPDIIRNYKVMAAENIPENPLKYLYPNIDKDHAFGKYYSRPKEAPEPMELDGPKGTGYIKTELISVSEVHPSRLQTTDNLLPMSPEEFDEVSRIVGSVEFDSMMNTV
The experiment in a line: PubChem AID 1396.

Regarding `CCN1C(=O)C(=CNNC(=O)c2ccncc2)C(=O)N(CC)C1=S` [SMR000218837], the IC50 stood at 4.42 µM.
